# In US20240408222A1, “COMPOUNDS, PHARMACEUTICAL COMPOSITIONS, AND METHODS FOR THE TREATMENT, PREVENTION, OR MANAGEMENT OF HYPERPRO[…]” (VINCERX PHARMA GMBH, priority 2021, published 2024):
# Tests used:
# in vivo = details: male, rat, plasma, iv, 0.5 mg/kg
# Description: Male rats (n=3) were given an intravenous 0.5 or 2.0 mg/kg bolus dose of test article dissolved in plasma with 1% DMSO and 2% ethanol (C30 only). Serial blood samples were collected up to 24 hours post-dose. Plasma was harvested from blood samples and stored frozen until sample analysis. Test article plasma concentrations were analyzed by LC/MS/MS.
# SUM149 [1] = assay: Cytotoxicity assay (Version 2, automated, AC50) with/without neutrophil elastase; type: cell-based; details: Version 2, activity concentration at −50%
# Description: (§1) Cultivation of cells was performed according to standard procedures with the media recommended by the provider. The cells, in a total volume of 100 μL, were seeded in a 96-well plate with a white bottom (#3610). After a 24 h incubation period at 37° C. and […], the medium was exchanged by adding 90 μL fresh medium. The treatment started by adding the test compound in 10 μL of culture medium to the cells in triplicates. Concentrations ranging from 10^−5 M to 10^−13 M were chosen. Two identically treated sets of samples were prepared. One set was treated with the test compound alone, whereas to the second set the compound and 10 nM elastase was added followed by a 72 h incubation period at 37° C. and […]. The proliferation was detected using the MTT assay (ATCC). At the end of the incubation period the MTT reagent was added to all samples for 4 h. Lysis of the cells followed by addition of the detergent was done overnight. The formed dye was detected at 570 nm. The proliferation of untreated but otherwise identically handled cells was define as the 100% value.
# (§2) The cytotoxicity assay (Version 2) was performed as described above. Some changes were applied as the assays were performed in an automated fashion and the IC50 values determination was changed. Here the change in metabolic activity of the cells, in percent, was calculated by normalization of the measured values to the absorbance values of medium containing wells without cells (═−100%) and the absorbance of the DMSO-treated cells (═0%). AC50 values (activity concentration at −50%) were determined by means of a 4 parameter Hill-fit using GeneData Screener software.
# 786-O [2] = assay: Cytotoxicity in vitro (MTT) in presence/absence of elastase; type: cell-based, human; details: 72 h
# Description: as §1
# HT29 [3] = assay: as above; type: cell-based, human; details: 72 h
# Description: as §1
# NCI H292 [4] = assay: as above; type: cell-based, human; details: 72 h
# Description: as §1
# SUM149 [5] = assay: as above; type: cell-based; details: 72 h
# Description: as §1
# 786-O [6] = assay: Cytotoxicity assay (Version 2, automated, AC50) with/without neutrophil elastase; type: cell-based, human; details: Version 2, activity concentration at −50%
# Description: as §1, §2
# HT29 [7] = assay: as above; type: cell-based, human; details: Version 2, activity concentration at −50%
# Description: as §1, §2
# NCI H292 [8] = assay: as above; type: cell-based, human; details: Version 2, activity concentration at −50%
# Description: as §1, §2
# [9] = SUM149, with (+) neutrophil elastase
# [10] = SUM149, without (−) neutrophil elastase
# [11] = with (+) 10 nM neutrophil elastase
# [12] = without (−) neutrophil elastase
# [13] = HT29, with (+) 10 nM neutrophil elastase
# [14] = HT29, without (−) neutrophil elastase
# [15] = NCI H292, with (+) 10 nM neutrophil elastase
# [16] = NCI H292, without (−) neutrophil elastase
# [17] = SUM149, with (+) 10 nM neutrophil elastase
# [18] = HT29, with (+) neutrophil elastase
# [19] = NCI H292, with (+) neutrophil elastase
Compound,AUC (in vivo) [ng·h/mL],Vd (in vivo) [L/kg],clearance (in vivo) [mL/min/kg],half-life (in vivo) [h],AC50 (SUM149 [1]; [9]) [nM],AC50 (SUM149 [1]; [10]) [nM],IC50 (786-O [2]; [11]) [nM],IC50 (786-O [2]; [12]) [nM],IC50 (HT29 [3]; [13]) [nM],IC50 (HT29 [3]; [14]) [nM],IC50 (NCI H292 [4]; [15]) [nM],IC50 (NCI H292 [4]; [16]) [nM],IC50 (SUM149 [5]; [17]) [nM],IC50 (SUM149 [5]; [10]) [nM],AC50 (786-O [6]; with (+) neutrophil elastase) [nM],AC50 (786-O [6]; [12]) [nM],AC50 (HT29 [7]; [18]) [nM],AC50 (HT29 [7]; [14]) [nM],AC50 (NCI H292 [8]; [19]) [nM],AC50 (NCI H292 [8]; [16]) [nM]
CCCNC(=O)Nc1cccc(S(=O)(=O)Nc2cccc([C@@H](CC(=O)O)NC(=O)Nc3ccc(NC(=O)NCCOCCOCCOCCC(=O)NCCCC[C@H](NC(=O)CCOCCOCCOCCNC(=O)Nc4ccc(NC(=O)N[C@H](CC(=O)O)c5cccc(NS(=O)(=O)c6cccc(NC(=O)NCCC)c6)c5)cc4)C(=O)NCCOCCOCCOCCC(=O)N[C@@H](CC(=O)O)C(=O)N4CCC[C@H]4C(=O)N[C@H](C(=O)N=S(C)(=O)Cc4cc5cc(c4)OC(C)CCOc4cc(F)ccc4-c4nc(ncc4F)N5)C(C)C)cc3)c2)c1 (relative stereo) [Compound 30],50000 to 150000,> 0.1,0.05 to 0.5,10 to 20,–,–,–,–,–,–,–,–,–,–,–,–,–,–,–,–
"CCCNC(=O)Nc1cccc(S(=O)(=O)Nc2cccc([C@@H](CC(=O)O)NC(=O)Nc3ccc(NC(=O)NCCOCCOCCOCCC(=O)N[C@@H](CC(=O)O)C(=O)N4CCC[C@H]4C(=O)N[C@H](C(=O)N=S(C)(=O)Cc4ccnc(Nc5cc(-c6ccc(F)cc6OC)c(F)cn5)c4)C(C)C)cc3)c2)c1 (relative stereo) [Compound 2, disodium 1-[(2S)-2-(carboxylatomethyl)-17-{4-[({(1R)-2-carboxylato-1-[3-({3-[(propylcarbamoyl)amino]benzene-1-sulfonyl}amino)phenyl]ethyl}carbamoyl)amino]anilino}-4,17-dioxo-7,10,13-trioxa-3,16-diazaheptadecanan-1-oyl]-L-prolyl-N—[(S*)-[(2-{[5-fluoro-4-(4-fluoro-2-methoxyphenyl)pyridin-2-yl]amino}pyridin-4-yl)methyl](methyl)oxo-lambda^6-sulfanylidene]-L-valinamide]",–,–,–,–,100 to 1000,100 to 1000,11 to 100,> 100,1.1 to 10,> 100,11 to 100,> 100,11 to 100,> 100,100 to 1000,100 to 1000,100 to 1000,100 to 1000,100 to 1000,> 1000
"CCCNC(=O)Nc1cccc(S(=O)(=O)Nc2cccc([C@@H](CC(=O)O)NC(=O)Nc3ccc(NC(=O)N(C)CCN(C)CCN(C)CC(=O)N[C@@H](CC(N)=O)C(=O)N4CCC[C@H]4C(=O)N[C@H](C(=O)N=[S@@](C)(=O)Cc4ccnc(Nc5cc(-c6ccc(F)cc6OC)c(F)cn5)c4)C(C)C)cc3)c2)c1 [Compound 4, N-{2-[{2-[({4-[({(1R)-2-Carboxy-1-[3-({3-[(propylcarbamoyl)amino]benzene-1-sulfonyl}amino)phenyl]ethyl}carbamoyl)amino]phenyl}carbamoyl)(methyl)amino]ethyl} (methyl)amino]ethyl}-N-methylglycyl-L-asparaginyl-L-prolyl-N—[(S)-[(2-{[5-fluoro-4-(4-fluoro-2-methoxyphenyl)pyridine-2-yl]amino}pyridin-4-yl)methyl](methyl)oxo-lambda^6-sulfanylidene]-L-valinamide]",–,–,–,–,100 to 1000,> 1000,11 to 100,> 100,11 to 100,> 100,11 to 100,> 100,11 to 100,> 100,11 to 100,> 1000,100 to 1000,> 1000,> 1000,> 1000
CCCNC(=O)Nc1cccc(S(=O)(=O)Nc2cccc([C@H](CC(=O)O)NC(=O)Nc3ccc(NC(=O)NCCOCCOCCOCCC(=O)NCCCC[C@H](NC(=O)CCOCCOCCOCCNC(=O)Nc4ccc(NC(=O)N[C@@H](CC(=O)O)c5cccc(NS(=O)(=O)c6cccc(NC(=O)NCCC)c6)c5)cc4)C(=O)NCCOCCOCCOCCC(=O)N[C@@H](CC(=O)O)C(=O)N4CCC[C@H]4C(=O)N[C@H](C(=O)N=[S@@](C)(=O)Cc4cc5cc(c4)OCCCCOc4cc(F)ccc4-c4nc(ncc4F)N5)C(C)C)cc3)c2)c1 [Compound 19],–,–,–,–,100 to 1000,100 to 1000,1.1 to 10,> 100,≤ 1,11 to 100,1.1 to 10,11 to 100,≤ 1,1.1 to 10,100 to 1000,100 to 1000,100 to 1000,100 to 1000,11 to 100,100 to 1000
CCCNC(=O)Nc1cccc(S(=O)(=O)Nc2cccc([C@@H](CC(=O)O)NC(=O)Nc3ccc(NC(=O)NCCOCCOCCOCCC(=O)NCCCC[C@H](NC(=O)CCOCCOCCOCCNC(=O)Nc4ccc(NC(=O)N[C@H](CC(=O)O)c5cccc(NS(=O)(=O)c6cccc(NC(=O)NCCC)c6)c5)cc4)C(=O)NCCOCCOCCOCCC(=O)N[C@@H](CC(=O)O)C(=O)N4CCC[C@H]4C(=O)N[C@H](C(=O)N=[S@@](C)(=O)Cc4cc5cc(c4)OCCCCOc4cc(F)ccc4-c4nc(ncc4F)N5)C(C)C)cc3)c2)c1 [Compound 18],–,–,–,–,≤ 10,100 to 1000,1.1 to 10,> 100,≤ 1,11 to 100,1.1 to 10,> 100,≤ 1,11 to 100,11 to 100,> 1000,11 to 100,> 1000,11 to 100,100 to 1000
"CCCNC(=O)Nc1cccc(S(=O)(=O)Nc2cccc([C@@H](CC(=O)O)NC(=O)Nc3ccc(NC(=O)N(C)CCN(C)CCN(C)CC(=O)N[C@@H](CC(N)=O)C(=O)N4CCC[C@H]4C(=O)N[C@H](C(=O)N=[S@@](C)(=O)Cc4cc5cc(c4)OCCCCOc4cc(F)ccc4-c4nc(ncc4F)N5)C(C)C)cc3)c2)c1 [Compound 5, N-{2-[{2-[({4-[({(1R)-2-Carboxy-1-[3-({3-[(propylcarbamoyl)amino]benzene-1-sulfonyl}amino)phenyl]ethyl}carbamoyl)amino]phenyl}carbamoyl)(methyl)amino]ethyl} (methyl)amino]ethyl}-N-methylglycyl-L-asparaginyl-L-prolyl-N—[(S)-{[16,20-difluoro-2,3,4,5-tetrahydro-12H-13,17-(azeno)-11,7-(metheno)-1,6,12,14-benzodioxadiazacyclononadecin-9-yl]methyl}(methyl)oxo-lambda^6-sulfanylidene]-L-valinamide]",–,–,–,–,11 to 100,> 1000,≤ 1,> 100,≤ 1,> 100,1.1 to 10,> 100,1.1 to 10,> 100,11 to 100,> 1000,11 to 100,> 1000,11 to 100,100 to 1000
"CCCNC(=O)Nc1cccc(S(=O)(=O)Nc2cccc([C@@H](CC(=O)O)NC(=O)Nc3ccc(NC(=O)NCCOCCOCCOCCC(=O)N[C@@H](CC(=O)O)C(=O)N4CCC[C@H]4C(=O)N[C@H](C(=O)N=S(C)(=O)Cc4cccc(Nc5ncnc(-c6ccc(F)cc6OC)n5)c4)C(C)C)cc3)c2)c1 (relative stereo) [Compound 1, disodium 1-[(2S)-2-(carboxylatomethyl)-17-{4-[({(1R)-2-carboxylato-1-[3-({3-[(propylcarbamoyl)amino]benzene-1-sulfonyl}amino)phenyl]ethyl}carbamoyl)amino]anilino}-4,17-dioxo-7,10,13-trioxa-3,16-diazaheptadecanan-1-oyl]-L-prolyl-N—[(R*)-[(3-{[4-(4-fluoro-2-methoxyphenyl)-1,3,5-triazin-2-yl]amino}phenyl)methyl](methyl)oxo-lambda^6-sulfanylidene]-L-valinamide]",–,–,–,–,100 to 1000,> 1000,11 to 100,11 to 100,11 to 100,> 100,11 to 100,> 100,11 to 100,> 100,> 1000,> 1000,> 1000,> 1000,11 to 100,> 1000
